Reference: PubChem BioAssay AID330 (DTP/NCI, 2004)
Values joined by “and” are separate entries in the source; they are usually repeats but may differ in a detail not shown here. Identical values can stand only once. Toxic doses and inconclusive results are not listed. Rule for the calls: active = survival T/C of 150% or more; inactive = T/C below 125% in these data.

Tested on: P388 leukemia ip, CD2F1 mice, survival T/C
Assay: NCI In Vivo Anticancer Drug Screen. Data for tumor model P388 Leukemia (intraperitoneal) in CD2F1 (CDF1) mice
Conditions: endpoint: median survival time, higher = longer survival
Procedure, shortened: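 Mice carrying the transplanted tumor received test compound or vehicle. Survival was recorded in each group, and the value is the treated-group measurement divided by that of the vehicle-treated control group.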

[1] = dose: 100.0 mg/kg/injection, schedule: Q01DX009 (ip), vehicle: saline with Tween-80
[2] = dose: 200.0 mg/kg/injection, schedule: Q01DX009 (ip), vehicle: saline with Tween-80
[3] = dose: 50.0 mg/kg/injection, schedule: Q01DX009 (ip), vehicle: saline with Tween-80
[4] = dose: 12.5 mg/kg/injection, schedule: Q01DX009 (ip), vehicle: Klucel (hydroxypropylcellulose) (HPC)
[5] = dose: 25.0 mg/kg/injection, schedule: Q01DX009 (ip), vehicle: Klucel (hydroxypropylcellulose) (HPC)
[6] = dose: 50.0 mg/kg/injection, schedule: Q01DX005 (ip), vehicle: Klucel (hydroxypropylcellulose) (HPC)
[7] = dose: 100.0 mg/kg/injection, schedule: Q01DX005 (ip), vehicle: Klucel (hydroxypropylcellulose) (HPC)
[8] = dose: 200.0 mg/kg/injection, schedule: Q01DX005 (ip), vehicle: Klucel (hydroxypropylcellulose) (HPC)
[9] = dose: 50.0 mg/kg/injection, schedule: Q01DX009 (ip), vehicle: Klucel (hydroxypropylcellulose) (HPC)
[10] = dose: 60.0 mg/kg/injection, schedule: Q01DX005 (ip), vehicle: saline with Tween-80
[11] = dose: 120.0 mg/kg/injection, schedule: Q01DX005 (ip), vehicle: saline with Tween-80
[12] = dose: 240.0 mg/kg/injection, schedule: Q01DX005 (ip), vehicle: saline with Tween-80
[13] = dose: 100.0 mg/kg/injection, schedule: Q04DX003 (ip), vehicle: saline with Tween-80
[14] = dose: 50.0 mg/kg/injection, schedule: Q01DX005 (ip), vehicle: saline with Tween-80
[15] = dose: 100.0 mg/kg/injection, schedule: Q01DX009 (ip), vehicle: Klucel (hydroxypropylcellulose) (HPC)
[16] = dose: 200.0 mg/kg/injection, schedule: Q01DX009 (ip), vehicle: Klucel (hydroxypropylcellulose) (HPC)
[17] = dose: 15.0 mg/kg/injection, schedule: Q01DX005 (ip), vehicle: saline with Tween-80
[18] = dose: 25.0 mg/kg/injection, schedule: Q01DX009 (ip), vehicle: saline with Tween-80

Measured: T/C

O=C(CCl)C(c1ccc([N+](=O)[O-])cc1)c1ccc([N+](=O)[O-])cc1
inactive: [1] 100 % of control | [2] 95 % of control | dose: 400.0 mg/kg/injection, schedule: Q01DX009 (ip), vehicle: saline with Tween-80 118 % of control

OC(Nc1ncccn1)C(Cl)(Cl)Cl (stereo not drawn)
inactive: [3] 104 % of control | [1] 100 % of control | [2] 100 % of control

N#C/C(C(=S)S)=C(/O)c1ccccc1
inactive: dose: 25.0 mg/kg/injection, schedule: Q01DX009 (ip), vehicle: saline sonified 104 % of control | dose: 50.0 mg/kg/injection, schedule: Q01DX009 (ip), vehicle: saline sonified 109 % of control | dose: 100.0 mg/kg/injection, schedule: Q01DX009 (ip), vehicle: saline sonified 100 % of control

Cc1cc(=O)oc2c(CNC(C(=O)O)C(C)C)c(O)ccc12 (stereo not drawn)
inactive: dose: 60.0 mg/kg/injection, schedule: Q01DX005 (ip), vehicle: Klucel (hydroxypropylcellulose) (HPC) 91 % of control | dose: 120.0 mg/kg/injection, schedule: Q01DX005 (ip), vehicle: Klucel (hydroxypropylcellulose) (HPC) 91 % of control

CC(C)CCC(=O)OCCN1CCN(CCCN2c3ccccc3Sc3ccc(C(F)(F)F)cc32)CC1
inactive: [4] 114 % of control and 117 % of control | [5] 116 % of control

CC1(C(Cl)(Cl)Cl)C=C(Cl)C(=O)C(Cl)=C1
inactive: dose: 25.0 mg/kg/injection, schedule: Q01DX005 (ip), vehicle: Klucel (hydroxypropylcellulose) (HPC) 99 % of control | [6] 98 % of control and 92 % of control | [7] 102 % of control | [8] 92 % of control

O=c1[nH]c(=O)c2ccccc2o1
inactive: dose: 6.25 mg/kg/injection, schedule: Q01DX009 (ip), vehicle: Klucel (hydroxypropylcellulose) (HPC) 104 % of control | [4] 111 % of control | [5] 110 % of control | [9] 106 % of control

CCCCCCNC(C)C
inactive: dose: 50.0 mg/kg/injection, schedule: Q01DX005 (ip), vehicle: saline 104 % of control | dose: 100.0 mg/kg/injection, schedule: Q01DX005 (ip), vehicle: saline 101 % of control

Cn1nc(-c2ccccc2)c(-c2cc(-c3ccccc3)n[nH]2)c(N)c1=O
inactive: [10] 87 % of control | [11] 89 % of control | [12] 97 % of control

CCCCCCCCCCCCCCCc1nc(SCC(=O)OC)n[nH]1
inactive: [10] 99 % of control | [11] 99 % of control | [12] 98 % of control

O=C1OC(=O)C2CCC12 (stereo not drawn)
inactive: [3] 106 % of control | dose: 60.0 mg/kg/injection, schedule: Q01DX005 (ip), vehicle: saline 93 % of control | [1] 106 % of control | dose: 120.0 mg/kg/injection, schedule: Q01DX005 (ip), vehicle: saline 89 % of control | [2] 97 % of control | dose: 240.0 mg/kg/injection, schedule: Q01DX005 (ip), vehicle: saline 86 % of control

Cc1ccc2c(c1)N(CCSc1ncn[nH]1)C(C)(C)CC2C (stereo not drawn)
inactive: dose: 100.0 mg/kg/injection, schedule: Q04DX002 (ip), vehicle: Klucel (hydroxypropylcellulose) (HPC) 97 % of control | dose: 200.0 mg/kg/injection, schedule: Q04DX002 (ip), vehicle: Klucel (hydroxypropylcellulose) (HPC) 92 % of control | dose: 400.0 mg/kg/injection, schedule: Q04DX002 (ip), vehicle: Klucel (hydroxypropylcellulose) (HPC) 97 % of control

C[C@]12C=CC(=O)C=C1CC[C@@H]1[C@@H]2[C@@H](O)C[C@@]2(C)[C@H]1CC[C@]2(O)C(=O)COC(=O)CCC1CCCC1
inactive: [13] 104 % of control | dose: 200.0 mg/kg/injection, schedule: Q04DX003 (ip), vehicle: saline with Tween-80 100 % of control | dose: 400.0 mg/kg/injection, schedule: Q04DX003 (ip), vehicle: saline with Tween-80 91 % of control

ClCCN1c2ccccc2Sc2ccc3ccccc3c21
inactive: [14] 89 % of control | dose: 100.0 mg/kg/injection, schedule: Q01DX005 (ip), vehicle: saline with Tween-80 93 % of control

CCOC(C)OCCCI (stereo not drawn)
inactive: [10] 105 % of control | [11] 101 % of control | [12] 105 % of control

COc1cccc(/C=C2/SC(=S)N(Cc3ccco3)C2=O)c1OC
inactive: dose: 12.5 mg/kg/injection, schedule: Q01DX005 (ip), vehicle: saline with Tween-80 100 % of control | dose: 25.0 mg/kg/injection, schedule: Q01DX005 (ip), vehicle: saline with Tween-80 90 % of control | [14] 90 % of control and 91 % of control

O=S1(=O)OCc2ccccc21
inactive: [4] 98 % of control | [5] 100 % of control | [9] 107 % of control | [15] 117 % of control

CCCCCC(=O)Nc1ncc([N+](=O)[O-])s1
inactive: [9] 116 % of control | [15] 113 % of control | [16] 98 % of control

COC(=O)c1cn(C2OC(CO)C(O)C2O)c2ncnc(N)c12 (stereo not drawn)
inactive: dose: 3.75 mg/kg/injection, schedule: Q01DX005 (ip), vehicle: saline with Tween-80 103 % of control | dose: 7.5 mg/kg/injection, schedule: Q01DX005 (ip), vehicle: saline with Tween-80 104 % of control | [17] 117 % of control and 98 % of control | [10] 100 % of control

FC(F)(F)c1ccc2cc(C3(C4CCNCC4)CCCO3)c3ccc(C(F)(F)F)cc3c2c1 (stereo not drawn)
inactive: dose: 12.5 mg/kg/injection, schedule: Q01DX009 (ip), vehicle: distilled water + Tween-80 104 % of control | dose: 25.0 mg/kg/injection, schedule: Q01DX009 (ip), vehicle: distilled water + Tween-80 95 % of control

Cc1ccc(O)c(C(=NCCN=C(c2ccccc2)c2cc(C)ccc2O)c2ccccc2)c1
inactive: [6] 103 % of control and 106 % of control and 98 % of control | [7] 100 % of control and 104 % of control and 118 % of control | [8] 100 % of control and 101 % of control and 121 % of control | dose: 400.0 mg/kg/injection, schedule: Q01DX005 (ip), vehicle: Klucel (hydroxypropylcellulose) (HPC) 96 % of control

C=C1CC2CCC1C2 (stereo not drawn)
inactive: [18] 100 % of control | dose: 25.0 mg/kg/injection, schedule: Q04DX003 (ip), vehicle: saline with Tween-80 104 % of control | [3] 100 % of control | dose: 50.0 mg/kg/injection, schedule: Q04DX003 (ip), vehicle: saline with Tween-80 104 % of control | [1] 100 % of control | [13] 100 % of control

Nc1nc(=O)[nH]c([O-])c1N=O.Nc1nc(=O)[nH]c([O-])c1N=O.[Ag+].[Ag+]
inactive: [17] 104 % of control and 86 % of control | dose: 30.0 mg/kg/injection, schedule: Q01DX005 (ip), vehicle: saline with Tween-80 105 % of control and 89 % of control

O=C1OC(C2OC(=O)C(=O)C2C(=O)c2ccccc2Cl)C(C(=O)c2ccccc2Cl)C1=O (stereo not drawn)
inactive: dose: 15.0 mg/kg/injection, schedule: Q01DX005 (ip), vehicle: saline + Tween-80 + alcohol 99 % of control | dose: 30.0 mg/kg/injection, schedule: Q01DX005 (ip), vehicle: saline + Tween-80 + alcohol 91 % of control

Cc1sc(C)c2c1C[Se]Cc1c(C)sc(C)c1C[Se]C2
inactive: dose: 400.0 mg/kg/injection, schedule: Q01DX001 (ip), vehicle: saline with Tween-80 87 % of control

O=C1N/C(=N/OF)C(F)C(NO)N1 (stereo not drawn)
inactive: [9] 103 % of control | [15] 103 % of control | [16] 101 % of control

CCCCNCCC(=O)c1ccc(Cl)cc1
inactive: dose: 6.25 mg/kg/injection, schedule: Q01DX009 (ip), vehicle: saline with Tween-80 100 % of control | dose: 12.5 mg/kg/injection, schedule: Q01DX009 (ip), vehicle: saline with Tween-80 100 % of control | [18] 105 % of control
